According to patent publication US9403827B2, “Substituted purinone compounds” (NOVARTIS AG, priority 2013, dated 2016):

How the values were obtained:
Assay type in all cases: binding
[1] = target: T1, human MDM2 protein (amino acids 2-188) (Homo sapiens (Human), UniProt Q00987); test: TR-FRET p53-MDM2 Assay 1; conditions: 1.25 nM MDM2-biotinylated, 10 nM Cy5-p53 peptide
Procedure: (§1) Time Resolved Fluorescence Energy Transfer (TR-FRET) Assay
(§2) The inhibition of p53-MDM2 and p53-MDM4 interactions is measured by time resolved fluorescence energy transfer (TR-FRET). Fluorescence energy transfer (or Foerster resonance energy transfer) describes an energy transfer between donor and acceptor fluorescent molecules. For this assay, human MDM2 protein (amino acids 2-188) and human MDM4 protein (amino acids 2-185), tagged with a C-terminal biotin moiety, are used in combination with a Europium labeled streptavidin (Perkin Elmer, Inc., Waltham, Mass., USA) serving as the donor fluorophore. The p53 derived, Cy5 labeled peptide Cy5-TFSDLWKLL (p53 aa18-26) is the energy acceptor. Upon excitation of the donor molecule at 340 nm, binding interaction between MDM2 or MDM4 and the p53 peptide induces energy transfer and enhanced response at the acceptor emission wavelength at 665 nm.
(§3) Disruption of the formation of the p53-MDM2 or p53-MDM4 complex due to an inhibitor molecule binding to the p53 binding site of MDM2 or MDM4 results in increased donor emission at 620 nm. The ratiometric FRET assay readout is calculated from the raw data of the two distinct fluorescence signals measured in time resolved mode (fluorescence 665 nm/fluorescence 620 nm×1000).
(§4) The test is performed in white 384-well plates (Greiner Bio-One, reference 781207) in a total volume of 60 μL by adding 1 μL of compounds tested at different concentrations diluted in 100% DMSO (1.7% final DMSO concentration) in reaction buffer (PBS, 125 mM NaCl, 0.001% Novexin (consists of carbohydrate polymers), designed to increase the solubility and stability of proteins; Expedeon Ltd., Cambridgeshire, United Kingdom), 0.01% Gelatin, 0.01% 0.2%, Pluronic F-127 (block copolymer from ethylenoxide and propyleneoxide), 1 mM DTT). After addition of 1.25 nM MDM2-biotinylated or 2.5 nM MDM4-biotinylated (internal preparations, both MDM2 and MDM4 are biotinylated at the C-terminal of the peptide construct), and 0.625 nM Europium labeled streptavidin (Perkin Elmer), the solution is pre-incubated for 15 minutes at room temperature, then 10 nM Cy5-p53 peptide (internal preparation, the Cy5 dye is directly bound to the N-terminal part of p53 peptide construct) is added before an incubation at room temperature for 15 minutes prior to reading the plate. For measurement of samples, a Victor II microplate reader (Perkin Elmer) is used with the following settings: Excitation 340 nm, Emission Donor 620 nm and Emission Acceptor 665 nm. IC50 values are calculated by curve fitting using XLfit. If not specified, reagents are purchased from Sigma-Aldrich Chemie GmBH, Buchs, Switzerland.
(§5) This assay was used to evaluate compounds displaying inhibition of p53-MDM2 interaction and p53-MDM4 interaction at IC50s of 0.005 to 50 μM (p53-MDM2 Assay 1 and p53-MDM4 Assay 1, respectively). For selected compounds displaying IC50s between […] on MDM2, a slightly modified assay is used with the following adaptations: 0.1 nM MDM2, 0.1 nM Europium labeled streptavidin and Tecan genios Pro is used as a microplate reader for the fluorescence measurements (p53-MDM2 Assay 2).

[2] = target: human MDM4 protein (amino acids 2-185) (Homo sapiens (Human), UniProt O15151); test: TR-FRET p53-MDM4 Assay 1; conditions: 2.5 nM MDM4-biotinylated, 10 nM Cy5-p53 peptide
Procedure: as §1, §2, §3, §4, §5

[3] = target: T1, human MDM2 protein (amino acids 2-188); test: TR-FRET p53-MDM2 Assay 2 (modified: 0.1 nM MDM2); conditions: 0.1 nM MDM2, 0.1 nM Europium labeled streptavidin, Tecan genios Pro reader
Procedure: as §1, §2, §3, §4, §5

Sequence of human MDM4 protein (amino acids 2-185) (O15151 2-185): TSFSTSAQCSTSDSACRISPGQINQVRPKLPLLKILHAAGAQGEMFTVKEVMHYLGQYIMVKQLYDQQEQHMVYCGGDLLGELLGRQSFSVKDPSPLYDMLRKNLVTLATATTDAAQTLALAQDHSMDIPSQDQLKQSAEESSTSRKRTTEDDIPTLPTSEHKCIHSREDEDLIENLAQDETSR
T1 sequence (Q00987 2-188): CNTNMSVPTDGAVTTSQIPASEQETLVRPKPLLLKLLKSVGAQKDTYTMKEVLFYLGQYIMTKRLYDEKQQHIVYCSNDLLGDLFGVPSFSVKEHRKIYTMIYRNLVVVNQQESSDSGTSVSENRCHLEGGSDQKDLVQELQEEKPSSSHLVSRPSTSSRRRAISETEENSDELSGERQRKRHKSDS

IC50 [1] [µM]	IC50 [2] [µM]	IC50 [3] [nM]	SMILES
0.002	1.51	0.882	COc1ccccc1-c1nc2c(n1C(C)C)C(c1ccc(Cl)cc1)N(c1cccc(Cl)c1F)C(=O)N2 (stereo not shown) [Example 1, 1-(3-Chloro-2-fluoro-phenyl)-6-(4-chloro-phenyl)-7-isopropyl-8-(2-methoxy-phenyl)-1,3,6,7-tetrahydro-purin-2-one]
0.0021	2.13	0.779	COc1ccccc1-c1nc2c(n1C(C)C)C(c1ccc(Cl)cc1C)N(c1cccc(Cl)c1F)C(=O)N2 (stereo not shown) [Example 2, 1-(3-Chloro-2-fluoro-phenyl)-6-(4-chloro-2-methyl-phenyl)-7-isopropyl-8-(2-methoxy-phenyl)-1,3,6,7-tetrahydro-purin-2-one]
0.0031	16.7		COc1ccncc1-c1nc2c(n1C(C)C)C(c1ccc(Cl)cc1C)N(c1cc(Cl)ccc1C)C(=O)N2 (stereo not shown) [Example 4, 6-(4-Chloro-2-methylphenyl)-1-(5-chloro-2-methylphenyl)-7-isopropyl-8-(4-methoxypyridin-3-yl)-6,7-dihydro-1H-purin-2(3H)-one]
0.0085	14		COc1ccncc1-c1nc2c(n1C(C)C)C(c1ccc(Cl)cc1)N(c1cccc(Cl)c1F)C(=O)N2 (stereo not shown) [Example 6, 1-(3-Chloro-2-fluorophenyl)-6-(4-chlorophenyl)-7-isopropyl-8-(4-methoxypyridin-3-yl)-6,7-dihydro-1H-purin-2(3H)-one]
